Key:
Eimeria tenella [1] = test: Cell invasion inhibition of Eimeria tenella protozoa in MDBK cells (PCR, ITS-1 gene); assay type: cell-based; conditions: for inhibition at 10 ppm: read-out: Invasion inhibition %
Method: (§1) A certain amount of oocysts of each of Eimeria tenella and Eimeria acervulina was put in a tube containing glass beads and pulverized, and then to remove the crushed oocyst cell wall and other debris, internal sporocysts were purified using the percoll density gradient, and washed with PBS solution. A reagent comprising sodium taurocholic acid (Sigma aldrich, USA) and trypsin (Gibco, USA), respectively, was treated to sporocysts of Eimeria tenella, Eimeria acervulina and Eimeria maxima for excystation and they were incubated, and then they were washed with PBS solution once and protozoa were obtained.
(§2) The protozoa of Eimeria tenella and Eimeria acervulina were obtained by the method of Example 3-1 above. Sporozoites of 2×10^5 per well were added to a well in which MDBK cells (purchased from ATCC) spread as a monolayer and each material (p-coumaric acid: sigma, CAS No. 501-98-4, and anticoccidial agents, gallic acid: sigma, CAS No. 149-91-7, salinomycin: CAS No. sigma, 53003-10-4, diclazuril: sigma, CAS No. 101831-37-2, p-coumaric acid, gallic acid and salinomycin were treated by 10 ppm, and diclazuril was treated by 1 ppm) was treated to the cells, and cultured at a temperature of 40° C. for 24 hours. The negative control group is MDBK cells infected by the protozoa, and the positive control group means a group in which gallic acid, salinomycin or diclazuril solution was incubated with the protozoa. […] After removing the cells and protozoa inside the cells through pipetting, DNA was extracted from the cells, and PCR was performed using E. tenella ITS-1 (Internal transcribed spacer-1) gene or E. acervulina ACE gene-specific primers. The sequences of the used primers were described in Table 5 below.
(§3) Ct values before/after washing for each material were compared and corrected with the ΔCt value of the negative control group to calculate the fold change (2^−ΔCt) at each time point compared to the control group, and the invasion inhibition rate (%) of the protozoa by material treatment was calculated, and the result was shown in Table 6 and Table 7.
By the similar method to Example 3-2 above, 0.1% DMSO, p-coumaric acid (sigma, CAS No. 501-98-4), m-coumaric acid (sigma, 14755-02-3), and o-coumaric acid (sigma, 614-60-8) were treated at a concentration of 10 ppm, respectively, and the cell invasion inhibition rate against the Eimeria tenella protozoan was measured, and the result was shown in Table 9.

Eimeria tenella [2] = test: Intracellular propagation inhibition of Eimeria tenella protozoa in MDBK cells (PCR, ITS-1 gene); assay type: cell-based
Method: as §1
The protozoa of Eimeria tenella were obtained by the method of Example 3-1 above. […] Each material (p-coumaric acid, and anticoccidial agents, gallic acid, salinomycin: 10 ppm and diclazuril: 1 ppm) to the cells, and further cultured at a temperature of 40° C. for 24 hours.
The negative control group is MDBK cells infected by the protozoa, and the positive control group means a group in which salinomycin, gallic acid, or diclazuril solution was incubated with the protozoa. After removing the cells and protozoa inside the cells through pipetting, DNA was extracted from the cells using DNA extract kit (iNtRON Biotechnology), and PCR was performed using E. tenella ITS-1 (Internal transcribed spacer-1) gene-specific primers. The sequences of the used primers were described in Table 5 above. Ct values before/after washing for each material were compared and corrected with the ΔCt value of the negative control group to calculate the fold change (2^−ΔCt) at each time point compared to the control group, and the invasion inhibition rate (%) of the protozoa by material treatment was calculated, and the result was shown in Table 6 above.

Eimeria acervulina = test: Cell invasion inhibition of Eimeria acervulina protozoa in MDBK cells (PCR, ACE gene); assay type: cell-based; conditions: 40° C., 24 hours, p-coumaric acid, gallic acid, salinomycin 10 ppm, diclazuril 1 ppm
Method: as §1, §2, §3

Eimeria tenella [3] = test: In vivo anticoccidial efficacy in broilers challenge-inoculated with Eimeria tenella oocysts (anticoccidial index); set-up: species or system Ross broilers; conditions: in feed: salinomycin 60 ppm, VantiPEARL 125 ppm, p-coumaric acid 125 ppm; for Oocyst excretion amount: feces of 6-9th day of challenge inoculation, McMaster chamber; for ADG after challenge inoculation: before challenge to 7th day after challenge, 10,000 oocysts oral/broiler; for Oocyst index: index 0/5/10/20/40 from oocyst excretion % compared to infected negative control group; for Appendix lesion index: lesion score x 10; for ACI (anticoccidial index): out of 200 points, Equation 2; for Appendix lesion score: scale 0-4, 9th day after challenge inoculation; for Survival rate: up to the 8th day after challenge inoculation
Method: An in vivo efficacy evaluation test was performed in an exclusive broiler animal experiment facility in U.S. One-day-old female Ross broilers were individually weighed and randomly divided into groups to use in an experiment.
For the feed, Korea Feed A1-choi product was used, and each material (salinomycin (Cheil Bio Cheilsalino-60 product), VantiPEAL (Kemin, Cozante, key substance: Gallic acid), p-coumaric acid (CAS No. 501-98-4; sigma)) was added to the feed, respectively, at a concentration described in Table 3 below to be self-mixed. Antibiotics and supplements were not used in general feed and mixed feed, and no anticoccidial agent other than each material was added. Broilers were fed ad libitum throughout the experiment period.
Coccidiosis induction was performed by oral inoculation (challenge inoculation) in an oral tube type of 10,000 oocysts with over 90% mature (sporulation) Eimeria tenella per one individual to 14-day-old broilers.
The feed formulation administered to the control group (negative control group or positive control group) and test group and whether coccidiosis was induced by Eimeria tenella were described in Table 3 below. 6 1-day-old broilers were put in a cage randomly arranged for each test group, and after 14 days of feeding the general feed, the formulated feed prepared above was divided into each control group or test group and ingested.
The anticoccidial efficacy by test group designed in Example 1-2 above was shown as an anticoccidial index (ACI), and the anticoccidial index was calculated by Equation 2 below. The ACI score is out of 200 points, and the higher the ACI score, the more excellent the anticoccidial ability, and when it is 120 points or more to less than 140 points, it is determined that it is effective as an anticoccidial material, and when it is 140 points or more to less than 160 points, it is determined that it is excellent as an anticoccidial material, and when it is 160 points or more, it is determined that the anticoccidial effect is very excellent. (Luis Miguel De Pablos et al., Anticoccidial activity of maslinic acid against infection with Eimeria tenella in chickens, Parasitol Res, 2010) Anticoccidial index (ACI)=(survival rate after challenge inoculation (%))+(daily weight gain compared to negative control group (RWG, %))−(lesion score×10)−(fecal oocyst excretion amount index) (Equation 2)
1) Survival rate: the number of dead individuals was recorded daily, and post mortem autopsy was performed to determine a cause of mortality, and the number of individuals who died due to causes other than coccidiosis was excluded. The survival rate (%) up to the 8th day after challenge inoculation was used for anticoccidial index calculation.
2) Daily weight gain: body weight was measured for each cage before challenge inoculation with a protozoan into an individual and at the 7th day after challenge inoculation, and the difference was divided by the number of days to calculate the daily weight gain (ADG, g/d). ‘Daily weight gain compared to the negative control group (RWG, %)’ which was calculated by dividing the daily weight gain (ADG, average daily gain: g/d) of each experimental group by the weight gain (ADG, g/d) of the non-infected negative control group and multiplying by 100 was used for anticoccidial index calculation.
3) Lesion scoring: On the 9th day after challenge inoculation, an autopsy was conducted for 4 broilers per cage, and the intestines were incised and opened. Scoring was performed for each coccidial lesion in the appendix region of the broilers. The lesion scoring method was performed by referring to Johnson J K & Reid W M (1970) document (Joyce Johnson, W. Malcolm Reid, Anticoccidial drugs: Lesion scoring techniques in battery and floor-pen experiments with chickens, Experimental parasitology, 1970). […]

[4] = test system: Eimeria tenella protozoa (sporozoites); test: Direct killing effect against Eimeria tenella protozoa (sporozoites), microscopic count; conditions: 10 ppm; death rate compared to PBS-treated negative control group
Method: as §1, with “the protozoa” for “each of Eimeria tenella and Eimeria acervulina”, “tenella” for “tenella, Eimeria acervulina and Eimeria maxima”
After reacting 0.1% DMSO, m-coumaric acid (sigma, 14755-02-3), Caffeic acid (sigma, 331-39-5) and Ferulic acid (sigma, 1135-24-6) with the Eimeria tenella protozoa at a concentration of 10 ppm, respectively, only alive protozoa (sporozoites) were counted through microscopic observation. Then, the death rate (%) of the protozoa when each material was treated compared to the PBS-treated negative control group was measured, and the result was shown in Table 8 below.

[5] = Example 3-2, MDBK cells, 40° C., 24 hours, p-coumaric acid, gallic acid, salinomycin 10 ppm, diclazuril 1 ppm
[6] = MDBK cells, material added after 24 h invasion and washing, further 24 hours at 40° C., p-coumaric acid, gallic acid, salinomycin 10 ppm, diclazuril 1 ppm
[7] = Eimeria tenella, Example 4-2, MDBK cells, 10 ppm

With `O=C(O)c1cc(O)c(O)c(O)c1` [Gallic acid, gallic acid] the Invasion inhibition % (Eimeria tenella [1]; [5]) was 90.1%, the Propagation inhibition % (Eimeria tenella [2]; [6]) was 0.0% and the Invasion inhibition % (Eimeria acervulina) was 60.6%.
`O=C(O)/C=C/c1ccc(O)cc1` [p-coumaric acid] was tested, and the inhibition at 10 ppm (Eimeria tenella [1]; [7]) was 7.98%, the Invasion inhibition % (Eimeria tenella [1]; [5]) was 54.3% and the Oocyst excretion amount (Eimeria tenella [3]) was 5.7 × 10^7 Oocyst/chicken. The “RWG (daily weight gain compared to the non-infected negative control group)” value (Eimeria tenella [3]) was 94.5%, the “ADG after challenge inoculation” value (Eimeria tenella [3]) was 52 g/day and the Oocyst index (Eimeria tenella [3]) was 10. The Appendix lesion index (Eimeria tenella [3]) was 25, the “ACI (anticoccidial index)” value (Eimeria tenella [3]) was 160 points and the Appendix lesion score (Eimeria tenella [3]) was 2.5. It also gave a Survival rate (Eimeria tenella [3]) of 100%, a Propagation inhibition % (Eimeria tenella [2]; [6]) of 43.9% and an Invasion inhibition % (Eimeria acervulina) of 82.6%.
In the case of `N#CC(c1ccc(Cl)cc1)c1c(Cl)cc(-n2ncc(=O)[nH]c2=O)cc1Cl` (stereo not shown) [Diclazuril, diclazuril], the inhibition at 1 ppm (Eimeria tenella [1]; Eimeria tenella, Example 3-2, MDBK cells, 40° C., 24 hours, p-coumaric acid, gallic acid, salinomycin 10 ppm, diclazuril 1 ppm) is reported as 6.3%, the inhibition at 1 ppm (Eimeria tenella [2]; Eimeria tenella, MDBK cells, material added after 24 h invasion and washing, further 24 hours at 40° C., p-coumaric acid, gallic acid, salinomycin 10 ppm, diclazuril 1 ppm) is reported as 52.9% and the inhibition at 1 ppm (Eimeria acervulina; Eimeria acervulina) is reported as 42.7%.
With `O=C(O)/C=C/c1ccc(O)c(O)c1` [Caffeic acid] the Killed sporozoites % [4] was 0%.
With `COc1cc(/C=C/C(=O)O)ccc1O` [Ferulic acid] the Killed sporozoites % [4] was 0%.
`O=C(O)/C=C/c1ccccc1O` [o-coumaric acid] gave an inhibition at 10 ppm (Eimeria tenella [1]; [7]) of 39.6%.
For `CC[C@@H](C(=O)[C@@H](C)[C@@H](O)[C@H](C)[C@@H]1O[C@@H]([C@@H](CC)C(=O)O)CC[C@@H]1C)[C@H]1O[C@]2(C=C[C@@H](O)[C@]3(CC[C@@](C)([C@H]4CC[C@](O)(CC)[C@H](C)O4)O3)O2)[C@H](C)C[C@@H]1C` [Salinomycin, salinomycin], the inhibition at 10 ppm (Eimeria tenella [1]; Eimeria tenella, MDBK, 24 h) was 56.4%, the Oocyst excretion amount (Eimeria tenella [3]) was 6.3 × 10^7 Oocyst/chicken and the “RWG (daily weight gain compared to the non-infected negative control group)” value (Eimeria tenella [3]) was 81.8%. For the same compound, the “ADG after challenge inoculation” value (Eimeria tenella [3]) was 45 g/day, the Oocyst index (Eimeria tenella [3]) was 10 and the Appendix lesion index (Eimeria tenella [3]) was 22.7. For the same compound, the “ACI (anticoccidial index)” value (Eimeria tenella [3]) was 149 points, the Appendix lesion score (Eimeria tenella [3]) was 2.27 and the Survival rate (Eimeria tenella [3]) was 100%. It also gave an inhibition at 10 ppm (Eimeria tenella [2]; Eimeria tenella, MDBK, 24 h, read-out: Propagation inhibition %) of 34.8% and an inhibition at 10 ppm (Eimeria acervulina; Eimeria acervulina) of 59.4%.
`O=C(O)/C=C/c1cccc(O)c1` [m-coumaric acid] was tested, and the inhibition at 10 ppm (Eimeria tenella [1]; [7]) was 29.8% and the Killed sporozoites % [4] was 10.7%.
